Experimental data taken from publication PMC9090415, “Discovery of small molecule inhibitors of Plasmodium falciparum apicoplast DNA polymerase” (Journal of Enzyme Inhibition and Medicinal Chemistry, 2022).
Like-named read-outs stand apart in the source and are kept apart here.

Molecular target: P. falciparum apicoplast DNA polymerase (Pf-apPOL) (Plasmodium falciparum, UniProt Q8ILY1)
Assay: Fluorescence-based high-throughput DNA polymerase assay (molecular beacon), primary screen and dose-response
Type: biochemical
Details: for DNA Pol: 90 min, 10 µM; for % inhibition apPOL 180' 2.5 / % inhibition apPOL 180' 5 / % inhibition apPOL 180' 10 / % inhibition apPOL 180' 20 / % inhibition apPOL 180' 40 / % inhibition apPOL 180' 80: read at 180'
In short: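 Single-point screening used 10 µM compound with 20 nM polymerase, 20 nM hairpin substrate and 6 µM dNTPs for 90 min at 25 °C. Confirmatory titrations (2.5–80 µM) followed fluorescence at three times, and IC50 was derived from a fit including a cooperativity term n.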

[1] = first dose-response, concentration 40

Sequence of P. falciparum apicoplast DNA polymerase (Pf-apPOL) (Q8ILY1 entry or part of it): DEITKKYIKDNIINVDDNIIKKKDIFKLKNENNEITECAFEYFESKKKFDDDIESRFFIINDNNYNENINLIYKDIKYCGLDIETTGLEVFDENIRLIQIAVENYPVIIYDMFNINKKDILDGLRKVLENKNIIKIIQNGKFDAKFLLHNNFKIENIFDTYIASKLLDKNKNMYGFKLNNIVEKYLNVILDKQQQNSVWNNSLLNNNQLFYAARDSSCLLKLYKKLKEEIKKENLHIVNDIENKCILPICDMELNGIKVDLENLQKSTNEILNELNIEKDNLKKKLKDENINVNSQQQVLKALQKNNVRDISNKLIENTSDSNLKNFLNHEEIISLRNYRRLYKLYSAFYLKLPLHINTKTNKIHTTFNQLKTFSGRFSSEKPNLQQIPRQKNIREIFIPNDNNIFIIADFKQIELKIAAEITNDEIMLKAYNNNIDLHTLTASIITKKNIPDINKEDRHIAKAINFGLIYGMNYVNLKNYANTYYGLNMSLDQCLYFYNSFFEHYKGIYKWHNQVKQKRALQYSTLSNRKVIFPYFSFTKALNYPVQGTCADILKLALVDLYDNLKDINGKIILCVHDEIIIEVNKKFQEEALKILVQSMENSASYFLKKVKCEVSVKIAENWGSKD

How did the “DNA Pol” value (186 hits, DNA Pol (screen value), unit not given) turn out when `Cn1nc(-c2nnc(-c3ccccc3F)o2)c2c1CCN(C(=O)c1ccccc1Cl)C2` [Molecule 34, Cn1nc(c2c1CCN(C2)C(=O)c1ccccc1Cl)c1nnc(o1)c1ccccc1F] was run?
The value was 48.

And the “DNA Pol” value ('DNA Pol' (screen value), unit not given)?
The value was 48.

And the “% inhibition Apo pol 10' 2.5” value (DRC-1, read at 10', concentration 2.5)?
Its value is 33%.

What about the “% inhibition Apo pol 10' 5” value (DRC-1, read at 10', concentration 5) of the same compound?
Its value is 44%.

What about the “% inhibition Apo pol 10' 10” value (DRC-1, read at 10', concentration 10) of the same compound?
Its value is 52%.

And the “% inhibition Apo pol 10' 20” value (DRC-1, read at 10', concentration 20)?
The value was 58%.

And the “% inhibition Apo pol 10' 40” value (DRC-1, read at 10', concentration 40)?
The value was 59%.

What about the “% inhibition Apo pol 10' 80” value (DRC-1, read at 10', concentration 80) of the same compound?
The value was 63%.

And the “% inhibition Apol 90' 2.5” value (DRC-1, read at 90', concentration 2.5)?
The value was 23%.

What about the “% inhibition Apol 90' 5” value (DRC-1, read at 90', concentration 5) of the same compound?
The value was 35%.

What about the “% inhibition Apol 90' 10” value (DRC-1, read at 90', concentration 10) of the same compound?
The value was 46%.

And the “% inhibition Apol 90' 20” value (DRC-1, read at 90', concentration 20)?
The value was 54%.

What about the “% inhibition Apol 90' 40” value (DRC-1, read at 90', concentration 40) of the same compound?
Its value is 59%.

What about the “% inhibition Apol 90' 80” value (DRC-1, read at 90', concentration 80) of the same compound?
Its value is 65%.

And the “% inhibition apPOL 180' 2.5” value (DRC-1, concentration 2.5)?
The value was 17%.

And the “% inhibition apPOL 180' 5” value (DRC-1, concentration 5)?
The value was 28%.

What about the “% inhibition apPOL 180' 10” value (DRC-1, concentration 10) of the same compound?
Its value is 41%.

And the “% inhibition apPOL 180' 20” value (DRC-1, concentration 20)?
The value was 50%.

And the “% inhibition apPOL 180' 40” value (DRC-1, concentration 40)?
The value was 58%.

And the “% inhibition apPOL 180' 80” value (DRC-1, concentration 80)?
The value was 64%.

And the “% inhibition Apo pol 5'” value (DRC-2, concentration 2.5)?
Its value is 20%.

What about the “% inhibition Apo pol 5'” value (DRC-2, concentration 5) of the same compound?
Its value is 20%.

What about the “% inhibition Apo pol 5'” value (DRC-2, concentration 80) of the same compound?
Its value is 39%.

And the “% inhibition Apol 40'” value (DRC-2, concentration 2.5)?
Its value is 22%.

And the “% inhibition Apol 40'” value (DRC-2, concentration 5)?
The value was 27%.

What about the “% inhibition Apol 40'” value (DRC-2, concentration 40) of the same compound?
Its value is 49%.

What about the “% inhibition Apol 40'” value (DRC-2, concentration 80) of the same compound?
Its value is 52%.

What about the “% inhibition ApPOL 90'” value (DRC-2, concentration 2.5) of the same compound?
The value was 22%.

What about the “% inhibition ApPOL 90'” value (DRC-2, concentration 5) of the same compound?
Its value is 27%.

And the “% inhibition ApPOL 90'” value (DRC-2, concentration 40)?
The value was 52%.

What about the “% inhibition apPOL 180'” value (DRC-2, concentration 20) of the same compound?
Its value is 39%.

And the “% inhibition apPOL 180'” value (DRC-2, concentration 40)?
The value was 49%.

And the “% inhibition apPOL 180'” value (DRC-2, concentration 80)?
The value was 52%.

And the “% inhibition Apo pol 5' 2.5” value (DRC-2, read at 5', concentration 2.5)?
Its value is 20%.

What about the “% inhibition Apo pol 5' 5” value (DRC-2, read at 5', concentration 5) of the same compound?
The value was 20%.

What about the “% inhibition Apo pol 5' 10” value (DRC-2, read at 5', concentration 10) of the same compound?
Its value is 24%.

And the “% inhibition Apo pol 5' 20” value (DRC-2, read at 5', concentration 20)?
Its value is 29%.

And the “% inhibition Apo pol 5' 40” value (DRC-2, read at 5', concentration 40)?
Its value is 38%.

And the “% inhibition Apo pol 5' 80” value (DRC-2, read at 5', concentration 80)?
Its value is 39%.

What about the “% inhibition Apol 40' 2.5” value (DRC-2, read at 40', concentration 2.5) of the same compound?
Its value is 22%.

And the “% inhibition Apol 40' 5” value (DRC-2, read at 40', concentration 5)?
Its value is 27%.

And the “% inhibition Apol 40' 10” value (DRC-2, read at 40', concentration 10)?
The value was 34%.

And the “% inhibition Apol 40' 20” value (DRC-2, read at 40', concentration 20)?
The value was 40%.

What about the “% inhibition Apol 40' 40” value (DRC-2, read at 40', concentration 40) of the same compound?
The value was 49%.

And the “% inhibition Apol 40' 80” value (DRC-2, read at 40', concentration 80)?
The value was 52%.

And the “% inhibition ApPOL 90' 2.5” value (DRC-2, read at 90', concentration 2.5)?
Its value is 22%.

And the “% inhibition ApPOL 90' 5” value (DRC-2, read at 90', concentration 5)?
Its value is 27%.

And the “% inhibition ApPOL 90' 10” value (DRC-2, read at 90', concentration 10)?
Its value is 36%.

And the “% inhibition ApPOL 90' 20” value (DRC-2, read at 90', concentration 20)?
Its value is 43%.

And the “% inhibition ApPOL 90' 40” value (DRC-2, read at 90', concentration 40)?
Its value is 52%.

And the “% inhibition ApPOL 90' 80” value (DRC-2, read at 90', concentration 80)?
The value was 55%.

What about the “% inhibition apPOL 180' 2.5” value (DRC-2, concentration 2.5) of the same compound?
The value was 15%.

And the “% inhibition apPOL 180' 5” value (DRC-2, concentration 5)?
The value was 21%.

What about the “% inhibition apPOL 180' 10” value (DRC-2, concentration 10) of the same compound?
Its value is 31%.

What about the “% inhibition apPOL 180' 20” value (DRC-2, concentration 20) of the same compound?
Its value is 39%.

What about the “% inhibition apPOL 180' 40” value (DRC-2, concentration 40) of the same compound?
The value was 49%.

What about the “% inhibition apPOL 180' 80” value (DRC-2, concentration 80) of the same compound?
Its value is 52%.

And the “% inhibition Apo pol 10'” value (first dose-response, concentration 10)?
Its value is 52%.

What about the “% inhibition Apo pol 10'” value (first dose-response, concentration 20) of the same compound?
Its value is 58%.

And the “% inhibition Apo pol 10'” value [1]?
The value was 59%.

What about the “% inhibition Apol 90'” value [1] of the same compound?
The value was 59%.

And the “% inhibition apPOL 180'” value [1]?
Its value is 58%.

How did the IC50 (read-out: IC50 Pf-apPOL, Table 2) turn out when `O=C(O)c1ccc(-c2nc3cc(-c4ccc5nc(-c6ccc(C(=O)O)cc6)[nH]c5c4)ccc3[nH]2)cc1` [Molecule 1] was run?
The IC50 was 5.9 ± 0.9 µM.

What about the IC50 (supplemental file 2, sheet IC50 nontoxic compounds, Pf-apPOL) of the same compound?
The IC50 was 5.92 µM.

`COc1ccc(-c2n[nH]cc2Oc2ccc(Cl)cc2)c(O)c1` [KU0029837] was tested. Which “DNA Pol” value ("DNA Pol" of the 186 hits list (screen value)) did it give?
Its value is 54.

And the “% inhibition Apo pol 10'” value (DRC-1, concentration 2.5)?
Its value is 13.0965%.

And the “% inhibition Apo pol 10'” value (DRC-1, concentration 5)?
Its value is 22.8396%.

And the “% inhibition Apo pol 10'” value (DRC-1, concentration 10)?
The value was 52.0762%.

And the “% inhibition Apo pol 10'” value (DRC-1, concentration 20)?
The value was 64.1383%.

And the “% inhibition Apo pol 10'” value (DRC-1, concentration 40)?
Its value is 82.54%.

And the “% inhibition Apo pol 10'” value (DRC-1, concentration 80)?
Its value is 88.9574%.

And the “% inhibition Apol 90'” value (DRC-1, concentration 2.5)?
The value was 6.836%.

What about the “% inhibition Apol 90'” value (DRC-1, concentration 5) of the same compound?
Its value is 14.8627%.

And the “% inhibition Apol 90'” value (DRC-1, concentration 10)?
Its value is 39.7229%.

And the “% inhibition Apol 90'” value (DRC-1, concentration 20)?
Its value is 52.6198%.

And the “% inhibition Apol 90'” value (DRC-1, concentration 40)?
The value was 73.85%.

And the “% inhibition Apol 90'” value (DRC-1, concentration 80)?
The value was 85.1708%.

What about the “% inhibition apPOL 180'” value (DRC-1, concentration 2.5) of the same compound?
Its value is 2.031%.

And the “% inhibition apPOL 180'” value (DRC-1, concentration 5)?
Its value is 3.615%.

And the “% inhibition apPOL 180'” value (DRC-1, concentration 10)?
The value was 25.5956%.

And the “% inhibition apPOL 180'” value (DRC-1, concentration 20)?
Its value is 36.8517%.

And the “% inhibition apPOL 180'” value (DRC-1, concentration 40)?
Its value is 62.2191%.

And the “% inhibition apPOL 180'” value (DRC-1, concentration 80)?
Its value is 78.7822%.

And the “% inhibition Apo pol 5'” value (DRC-2, concentration 2.5)?
The value was 15%.

And the “% inhibition Apo pol 5'” value (DRC-2, concentration 5)?
Its value is 23%.

What about the “% inhibition Apo pol 5'” value (DRC-2, concentration 10) of the same compound?
The value was 39%.

What about the “% inhibition Apo pol 5'” value (DRC-2, concentration 20) of the same compound?
The value was 43%.

What about the “% inhibition Apo pol 5'” value (DRC-2, concentration 40) of the same compound?
Its value is 51%.

And the “% inhibition Apo pol 5'” value (DRC-2, concentration 80)?
The value was 51%.

What about the “% inhibition Apol 40'” value (DRC-2, concentration 2.5) of the same compound?
The value was 15%.

And the “% inhibition Apol 40'” value (DRC-2, concentration 5)?
The value was 27%.

And the “% inhibition Apol 40'” value (DRC-2, concentration 10)?
Its value is 46%.

And the “% inhibition Apol 40'” value (DRC-2, concentration 20)?
The value was 55%.

And the “% inhibition Apol 40'” value (DRC-2, concentration 40)?
Its value is 69%.

What about the “% inhibition Apol 40'” value (DRC-2, concentration 80) of the same compound?
Its value is 72%.

And the “% inhibition ApPOL 90'” value (DRC-2, concentration 2.5)?
The value was 13%.

What about the “% inhibition ApPOL 90'” value (DRC-2, concentration 5) of the same compound?
Its value is 24%.

And the “% inhibition ApPOL 90'” value (DRC-2, concentration 10)?
The value was 44%.

What about the “% inhibition ApPOL 90'” value (DRC-2, concentration 20) of the same compound?
Its value is 53%.

And the “% inhibition ApPOL 90'” value (DRC-2, concentration 40)?
The value was 71%.

And the “% inhibition ApPOL 90'” value (DRC-2, concentration 80)?
Its value is 74%.

What about the “% inhibition apPOL 180'” value (DRC-2, concentration 2.5) of the same compound?
The value was 2.39%.

What about the “% inhibition apPOL 180'” value (DRC-2, concentration 5) of the same compound?
The value was 13%.

What about the “% inhibition apPOL 180'” value (DRC-2, concentration 10) of the same compound?
The value was 32%.

What about the “% inhibition apPOL 180'” value (DRC-2, concentration 20) of the same compound?
Its value is 43%.

And the “% inhibition apPOL 180'” value (DRC-2, concentration 40)?
Its value is 66%.

What about the “% inhibition apPOL 180'” value (DRC-2, concentration 80) of the same compound?
Its value is 74%.

And the “DNA Pol” value (primary screen value, DNA Pol)?
Its value is 54.
